Test results as given in patent publication US11427549B2, “Pyrimidinyloxy benzo-fused compounds as herbicides” (FMC Corporation, priority 2017, dated 2022).

Tests used:
[1] = system: galium (catchweed bedstraw, Galium aparine); assay: Test A postemergence, galium; type: in vivo; conditions: Galium, post-emergence, 240 h, 0 to 100 scale (0 no effect, 100 complete control), read-out: Plant response rating, Galium; for pest or weed control at 31 g/ha: 31 g ai/ha; for pest or weed control at 125 g/ha: 125 g ai/ha
[2] = system: ragweed (common ragweed, Ambrosia elatior); assay: Test A postemergence, ragweed; type: in vivo; conditions: Ambrosia artemisiifolia, post-emergence, 240 h, 0 to 100 scale (0 no effect, 100 complete control), read-out: Plant response rating, Ragweed; for pest or weed control at 31 g/ha: 31 g ai/ha; for pest or weed control at 125 g/ha: 125 g ai/ha
[3] = system: pigweed (Amaranthus retroflexus); assay: Test A preemergence, pigweed; type: in vivo; conditions: Amaranthus retroflexus, pre-emergence, 240 h, 0 to 100 scale (0 no effect, 100 complete control), read-out: Plant response rating, Pigweed; for pest or weed control at 31 g/ha: 31 g ai/ha; for pest or weed control at 125 g/ha: 125 g ai/ha
[4] = system: barnyardgrass (Echinochloa crus-galli); assay: Test A postemergence, barnyardgrass; type: in vivo; conditions: Echinochloa crus-galli, post-emergence, 240 h, 0 to 100 scale (0 no effect, 100 complete control), read-out: Plant response rating, Barnyardgrass; for pest or weed control at 31 g/ha: 31 g ai/ha; for pest or weed control at 125 g/ha: 125 g ai/ha
rice (Oryza sativa) = assay: Test B flooded paddy test, rice; conditions: Oryza sativa, read-out: Plant response rating, Rice (0 to 100 scale, 0 is no effect, 100 is complete control)
[5] = system: foxtail, giant (giant foxtail, Setaria faberii); assay: Test A preemergence, foxtail, giant; type: in vivo; conditions: Setaria faberi, pre-emergence, 240 h, 0 to 100 scale (0 no effect, 100 complete control), read-out: Plant response rating, Foxtail, Giant; for pest or weed control at 31 g/ha: 31 g ai/ha; for pest or weed control at 125 g/ha: 125 g ai/ha
kochia (Kochia scoparia) [6] = assay: Test A postemergence, kochia; type: in vivo; conditions: Bassia scoparia, post-emergence, 240 h, 0 to 100 scale (0 no effect, 100 complete control), read-out: Plant response rating, Kochia; for pest or weed control at 31 g/ha: 31 g ai/ha; for pest or weed control at 125 g/ha: 125 g ai/ha
[7] = system: barnyardgrass (Echinochloa crus-galli); assay: Test A preemergence, barnyardgrass; type: in vivo; conditions: Echinochloa crus-galli, pre-emergence, 240 h, 0 to 100 scale (0 no effect, 100 complete control), read-out: Plant response rating, Barnyardgrass; for pest or weed control at 31 g/ha: 31 g ai/ha; for pest or weed control at 125 g/ha: 125 g ai/ha
kochia (Kochia scoparia) [8] = assay: Test A preemergence, kochia; type: in vivo; conditions: Bassia scoparia, pre-emergence, 240 h, 0 to 100 scale (0 no effect, 100 complete control), read-out: Plant response rating, Kochia; for pest or weed control at 31 g/ha: 31 g ai/ha; for pest or weed control at 125 g/ha: 125 g ai/ha
[9] = system: ragweed (common ragweed, Ambrosia elatior); assay: Test A preemergence, ragweed; type: in vivo; conditions: Ambrosia artemisiifolia, pre-emergence, 240 h, 0 to 100 scale (0 no effect, 100 complete control), read-out: Plant response rating, Ragweed; for pest or weed control at 31 g/ha: 31 g ai/ha; for pest or weed control at 125 g/ha: 125 g ai/ha
[10] = system: pigweed (Amaranthus retroflexus); assay: Test A postemergence, pigweed; type: in vivo; conditions: Amaranthus retroflexus, post-emergence, 240 h, 0 to 100 scale (0 no effect, 100 complete control), read-out: Plant response rating, Pigweed; for pest or weed control at 31 g/ha: 31 g ai/ha; for pest or weed control at 125 g/ha: 125 g ai/ha
[11] = system: ryegrass, Italian (Italian ryegrass, Lolium multiflorum); assay: Test A preemergence, ryegrass, Italian; type: in vivo; conditions: Lolium multiflorum, pre-emergence, 240 h, 0 to 100 scale (0 no effect, 100 complete control), read-out: Plant response rating, Ryegrass, Italian; for pest or weed control at 31 g/ha: 31 g ai/ha; for pest or weed control at 125 g/ha: 125 g ai/ha
corn (Zea mays) = assay: Test A postemergence, corn; type: in vivo; conditions: Zea mays, post-emergence, 240 h, 0 to 100 scale (0 no effect, 100 complete control); for Corn plant response rating (crop injury, 0 = no effect, 100 = complete kill) at 31 g/ha: 31 g ai/ha; for Corn plant response rating (crop injury, 0 = no effect, 100 = complete kill) at 125 g/ha: 125 g ai/ha
[12] = system: ryegrass, Italian (Italian ryegrass, Lolium multiflorum); assay: Test A postemergence, ryegrass, Italian; type: in vivo; conditions: Lolium multiflorum, post-emergence, 240 h, 0 to 100 scale (0 no effect, 100 complete control), read-out: Plant response rating, Ryegrass, Italian; for pest or weed control at 31 g/ha: 31 g ai/ha; for pest or weed control at 125 g/ha: 125 g ai/ha
[13] = system: blackgrass (Alopecurus myosuroides); assay: Test A postemergence, blackgrass; type: in vivo; conditions: Alopecurus myosuroides, post-emergence, 240 h, 0 to 100 scale (0 no effect, 100 complete control), read-out: Plant response rating, Blackgrass; for pest or weed control at 31 g/ha: 31 g ai/ha; for pest or weed control at 125 g/ha: 125 g ai/ha
[14] = system: barnyardgrass (Echinochloa crus-galli); assay: Test B flooded paddy test, barnyardgrass; conditions: Echinochloa crus-galli, read-out: Plant response rating, Barnyardgrass (0 to 100 scale, 0 is no effect, 100 is complete control)
[15] = system: ducksalad (Heteranthera limosa); assay: Test B flooded paddy test, ducksalad; conditions: Heteranthera limosa, read-out: Plant response rating, Ducksalad (0 to 100 scale, 0 is no effect, 100 is complete control)
[16] = system: wheat (Triticum aestivum); assay: Test A postemergence, wheat; type: in vivo; conditions: Triticum aestivum, post-emergence, 240 h, 0 to 100 scale (0 no effect, 100 complete control), read-out: Plant response rating, Wheat; for plant injury at 31 g/ha: 31 g ai/ha; for plant injury at 125 g/ha: 125 g ai/ha

Row | Compound | pest or weed control at 31 g/ha [1] | pest or weed control at 125 g/ha [1] | pest or weed control at 31 g/ha [2] | pest or weed control at 125 g/ha [2] | pest or weed control at 31 g/ha [3] | pest or weed control at 125 g/ha [3] | pest or weed control at 31 g/ha [4] | pest or weed control at 125 g/ha [4] | plant injury at 250 g/ha (rice (Oryza sativa)) | pest or weed control at 31 g/ha [5] | pest or weed control at 125 g/ha [5] | pest or weed control at 31 g/ha (kochia (Kochia scoparia) [6]) | pest or weed control at 125 g/ha (kochia (Kochia scoparia) [6]) | pest or weed control at 31 g/ha [7] | pest or weed control at 125 g/ha [7] | pest or weed control at 31 g/ha (kochia (Kochia scoparia) [8]) | pest or weed control at 125 g/ha (kochia (Kochia scoparia) [8]) | pest or weed control at 31 g/ha [9] | pest or weed control at 125 g/ha [9] | pest or weed control at 31 g/ha [10] | also measured
1 | FC(F)(F)CCC1OCCc2cccc(Oc3ncc(Cl)cn3)c21 (stereo not drawn) [Compound 32, 5-Chloro-2-[[3,4-dihydro-1-(3,3,3-trifluoropropyl)-1H-2-benzopyran-8-yl]oxy]pyrimidine] | 10% | 20% | 0% | 0% | 0% | 60% | 10% | 20% | 0% | 0% | 50% | 0% | 10% | 0% | 40% | 0% | 0% | 0% | 0% | 20% | pest or weed control at 125 g/ha [10]: 40%; pest or weed control at 31 g/ha [11]: 0%; pest or weed control at 125 g/ha [11]: 0%; Corn plant response rating (crop injury, 0 = no effect, 100 = complete kill) at 31 g/ha (corn (Zea mays)): 10%; Corn plant response rating (crop injury, 0 = no effect, 100 = complete kill) at 125 g/ha (corn (Zea mays)): 20%; pest or weed control at 31 g/ha [12]: 0%; pest or weed control at 125 g/ha [12]: 0%; pest or weed control at 31 g/ha [13]: 10%; pest or weed control at 125 g/ha [13]: 30%; pest or weed control at 250 g/ha [14]: 0%; pest or weed control at 250 g/ha [15]: 95%; plant injury at 31 g/ha [16]: 0%; plant injury at 125 g/ha [16]: 10%
2 | O=C1CCC(CCCC(F)(F)F)c2c(Oc3ncc(Cl)cn3)cccc21 (stereo not drawn) [Compound 30, 5-[(5-Chloro-2-pyrimidinyl)oxy]-3,4-dihydro-4-(4,4,4-trifluorobutyl)-1(2H)-naphthalenone] | 30% | 80% | 10% | 10% | 10% | 60% | 20% | 30% | 0% | 10% | 80% | 10% | 30% | 0% | 40% | 0% | 0% | 0% | 0% | 70% | pest or weed control at 125 g/ha [10]: 90%; pest or weed control at 31 g/ha [11]: 0%; pest or weed control at 125 g/ha [11]: 10%; Corn plant response rating (crop injury, 0 = no effect, 100 = complete kill) at 31 g/ha (corn (Zea mays)): 30%; Corn plant response rating (crop injury, 0 = no effect, 100 = complete kill) at 125 g/ha (corn (Zea mays)): 30%; pest or weed control at 31 g/ha [12]: 30%; pest or weed control at 125 g/ha [12]: 30%; pest or weed control at 31 g/ha [13]: 20%; pest or weed control at 125 g/ha [13]: 60%; pest or weed control at 250 g/ha [14]: 20%; pest or weed control at 250 g/ha [15]: 85%; plant injury at 31 g/ha [16]: 0%; plant injury at 125 g/ha [16]: 20%
